Data reported in the RepoRT retention time repository.

test: RP, Waters ACQUITY UPLC BEH C18, 50 × 2.1 mm, 1.7 µm, 40 °C, 0.6 mL/min, estimated dead time 0.18 min; A: water + 0.1% formic acid, pH 3; B: acetonitrile + 0.1% formic acid, pH 3; gradient (min/%B) 0/5 7/100 8/100; settings: stereoisomer not certain

`CC12CCCc3coc(c31)C(=O)c1cc3c(cc12)C(=O)C=CC3=O` (configuration not stated) and `Cc1coc2c1C(=O)C(=O)c1c-2ccc2c(C)cccc12` [1,6-dimethyl-10H,11H-phenanthro[1,2-b]furan-10,11-dione] are within 1.5-fold of each other in LC retention time: 2.6 min for the first, 3.42 min for the second.

`COc1cc2c(cc1O)CC1NCCc3cc(O)c(OC)c-2c31` (configuration not stated) and `COc1cc2c(cc1OC)Oc1c(O)ccc3c1C(C2)N(C)CC3` (configuration not stated) are within 1.5-fold of each other in LC retention time: 1.11 min for the first, 1.37 min for the second.

First: COC1=CC(=O)C2(c3cc(=O)c4c(O)cc(O)cc4o3)C(CC=C(C)C2C[C@H]2[C@@H](C)[C@@H](O)C[C@H]3C(C)(C)C[C@H](O)C[C@]23C)C1=O (some centres not stated)
Second: C=C1C(=O)C23C(O)CC4C(C)(C)CCCC4(COC(C)=O)C2C(O)CC1C3O (configuration not stated)
The LC retention time of the first is 2.1-fold lower: 1.14 min for the first, 2.42 min for the second.

`CC1CCC2(C)C(CCC3OC32C)C1(C)CC(=O)c1ccoc1` (configuration not stated) and `COc1cc(/C=C/C(=O)OC2CC3(C)CCC2C3(C)C)ccc1O` (configuration not stated) are within 1.5-fold of each other in LC retention time: 3.41 min for the first, 4.97 min for the second.

First: C[C@@H]1O[C@@H](O[C@@H]2C(O[C@H]3CC[C@@]4(C)C(CC[C@]5(C)C4CC=C4C6CC(C)(C)CC[C@]6(C(=O)O)CC[C@]45C)[C@]3(C)CO)OC[C@@H](OC3O[C@H](CO)[C@@H](O)[C@H](O)[C@H]3O)[C@H]2O)[C@H](O)[C@H](O[C@@H]2OC[C@@H](O)[C@H](O)[C@H]2O)[C@H]1O (some centres not stated)
Second: CC1=C(O)C(=O)C=C2C1=CC=C1[C@@]2(C)CC[C@@]2(C)[C@@H]3C[C@](C)(C(=O)O)CC[C@]3(C)CC[C@]12C
The LC retention time of the first is 2.4-fold lower: 2.21 min for the first, 5.33 min for the second.

Going from `COc1cc(O)c2c(c1)C(=O)c1cc(C)cc(O)c1C2=O` to `COc1ccc(-c2oc3cc(OC)c(OC)c(O)c3c(=O)c2OC)cc1O`, the LC retention time falls from 4.7 min to 2.62 min (1.8-fold).

Compared with `Cn1c(N)nc2c(ncn2C)c1=O` [2-amino-1,9-dimethyl-6,9-dihydro-1H-purin-6-one], `CC[C@@H]1CN(C)C[C@@]2(C(=O)OC)Cc3c([nH]c4ccccc34)C(=O)C[C@@H]12` is 7.8-fold higher in LC retention time: 0.226 min for the first, 1.76 min for the second.

`COc1cc2c(cc1O)C(Cc1ccc(OC3=CC4(C=CC3=O)CC3c5c(cc(OC)c(OC)c54)CCN3C)cc1)N(C)CC2` (configuration not stated) and `COc1cc2c3cc1Oc1c(cccc1OC)CC1c4c(cc(OC)c(OC)c4Oc4cccc(c4)CC3N(C)CC2)CCN1C` (configuration not stated) are within 1.5-fold of each other in LC retention time: 1.59 min for the first, 1.7 min for the second.

`CC(=O)OC(CCc1ccccc1)Cc1cc(=O)c2c(o1)OC1(C)CCC(C(C)C)C2C1` (configuration not stated) and `COc1c(O)c(C(=O)C2CC=C(CCC=C(C)C)CC2c2ccccc2)c(OC)c(OC)c1OC` (configuration not stated) are within 1.5-fold of each other in LC retention time: 4.97 min for the first, 5.69 min for the second.

`CCCC(CC(=O)O)C1=C2OC(=O)C(C(=O)C(C)CC)=C(O)C2(CC=C(C)C)CC(CC=C(C)C)C1(C)C` (configuration not stated) and `CCC(O)c1cc(=O)oc2c(C(=O)CC(C)C)c(O)c(CC=C(C)C)c(O)c12` (configuration not stated) are within 1.5-fold of each other in LC retention time: 6.55 min for the first, 5.49 min for the second.

`COc1cc2c3c(c1OC)Oc1ccc(cc1)CC1c4c(cc(OC)c(OC)c4Oc4ccc(cc4)CC3N(C)CC2)CCN1C` (configuration not stated) and `O=C1c2c(O)cc(O)c(C3C(=O)c4c(O)cc(O)cc4OC3c3ccc(O)cc3)c2OC(c2ccc(O)cc2)C1O` (configuration not stated) are within 1.5-fold of each other in LC retention time: 1.79 min for the first, 1.54 min for the second.

`C/C=C/C(=O)CC1C(=O)C=CC1(CCCCCCCC(=O)O)OC(C)=O` (configuration not stated) and `CC(C)(O)/C=C/C(=O)[C@](C)(O)[C@H]1[C@H](O)C[C@@]2(C)C3CC=C4C(C=C(O)C(=O)C4(C)C)[C@]3(C)C(=O)C[C@]12C` (some centres not stated) are within 1.5-fold of each other in LC retention time: 2.74 min for the first, 3 min for the second.

First: COc1ccc(C(=O)[C@@H](c2coc3cc(O)ccc3c2=O)C(c2ccc(O)cc2)c2ccc(O)cc2)c(O)c1
Second: COc1cc(CC(CO)C(CO)Cc2ccc(O)c(OC)c2)ccc1O (configuration not stated) [2,3-bis[(4-hydroxy-3-methoxyphenyl)methyl]butane-1,4-diol]
The LC retention time of the first is 11-fold higher: 3.14 min for the first, 0.28 min for the second.

Going from `CC(C)=CCCC(C)C12C=CC(C)(CC1)OO2` (configuration not stated) to `C=C1CCC(C(C)C)=CC2C1CCC2(C)O` (configuration not stated), the LC retention time falls from 4.96 min to 3.02 min (1.6-fold).

First: COc1cc(/C=C/c2ccc(OCC=C(C)C)cc2)cc(OC)c1
Second: CC[C@H]1C[C@H]2CN3CCc4c([nH]c5ccc(OC)cc45)[C@](C(=O)OC)(C2)C13
The LC retention time of the first is 2.7-fold higher: 5.37 min for the first, 2.02 min for the second.

Compared with `C=C1C(=O)O[C@@H]2C[C@@]3(C)CCCC(=C)[C@@H]3C[C@H]12`, `CC1=CC(C2OC3CCCN4C(C5CC(C)C(=O)O5)CCC4C3C2C)OC1=O` (configuration not stated) is 3.3-fold lower in LC retention time: 4.2 min for the first, 1.27 min for the second.

Compared with `COc1cc(CC[N+](C)(C)C)c2ccc3cc4c(c5c3c2c1OC5)OCO4`, `COc1cc(C=O)c([N+](=O)[O-])cc1OC` [4,5-dimethoxy-2-nitrobenzaldehyde] is 3.2-fold lower in LC retention time: 0.975 min for the first, 0.304 min for the second.

`CCN1CC2(COC(=O)c3ccccc3N3C(=O)CC(C)C3=O)CCC(OC)C34C5CC6C(OC)CC(O)(C5C6OC)C(O)(C(OC)C23)C14` (configuration not stated) and `CC[C@]12C=CCN3CC[C@]4(C(=C(C(=O)OC)C1)Nc1ccccc14)C32` (some centres not stated) are within 1.5-fold of each other in LC retention time: 2.22 min for the first, 2.17 min for the second.

In the case of `CC(CC[C@@H](C)[C@H]1CCC2C3C[C@H](OS(=O)(=O)O)[C@H]4C[C@H](OS(=O)(=O)O)C(OS(=O)(=O)O)C[C@]4(C)C3CC[C@@]21C)C(C)(C)C` (some centres not stated), the LC retention time is reported as 1.41 min.
